Data from PubChem BioAssay AID1963852 (Molecular Pharmacology Branch, DTP, NCI, 2024).

Test system: 282377-053-R-J1-PDC complex spheroid viability
Test: Anticancer human tumor 282377-053-R-J1-PDC patient-derived colon adenocarcinoma cell line growth inhibition [POLQ]
Conditions: for IC50: curve of first compound; for viability, T/C: stronger effect = lower value
Summary of the method: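 Growth inhibition in 3D: complex spheroids (tumor PDC, HUVEC, MSC) treated with POLQ inhibitor combinations; where Cmax unknown, highest tested concentration 10 microM, except SN-38 at 1 microM.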

[1] = second compound 0.0316 µM, first compound 0.00316 µM
[2] = second compound 0.0316 µM, first compound 0.01 µM
[3] = second compound 0.0316 µM, first compound 0.0316 µM
[4] = second compound 0.0316 µM, first compound 0.1 µM
[5] = second compound 0.0316 µM, first compound 0.316 µM
[6] = second compound 0.0316 µM, first compound 1 µM
[7] = second compound 0.1 µM, first compound 0.00316 µM
[8] = second compound 0.1 µM, first compound 0.01 µM
[9] = second compound 0.1 µM, first compound 0.0316 µM
[10] = second compound 0.1 µM, first compound 0.1 µM
[11] = second compound 0.1 µM, first compound 0.316 µM
[12] = second compound 0.1 µM, first compound 1 µM
[13] = second compound 0.316 µM, first compound 0.00316 µM
[14] = second compound 0.316 µM, first compound 0.01 µM
[15] = second compound 0.316 µM, first compound 0.0316 µM
[16] = second compound 0.316 µM, first compound 0.1 µM
[17] = second compound 0.316 µM, first compound 0.316 µM
[18] = second compound 0.316 µM, first compound 1 µM
[19] = second compound 1 µM, first compound 0.00316 µM
[20] = second compound 1 µM, first compound 0.01 µM
[21] = second compound 1 µM, first compound 0.0316 µM
[22] = second compound 1 µM, first compound 0.1 µM
[23] = second compound 1 µM, first compound 0.316 µM
[24] = second compound 1 µM, first compound 1 µM
[25] = second compound 3.16 µM, first compound 0.00316 µM
[26] = second compound 3.16 µM, first compound 0.01 µM
[27] = second compound 3.16 µM, first compound 0.0316 µM
[28] = second compound 3.16 µM, first compound 0.1 µM
[29] = second compound 3.16 µM, first compound 0.316 µM
[30] = second compound 3.16 µM, first compound 1 µM
[31] = second compound 10 µM, first compound 0.00316 µM
[32] = second compound 10 µM, first compound 0.01 µM
[33] = second compound 10 µM, first compound 0.0316 µM
[34] = second compound 10 µM, first compound 0.1 µM
[35] = second compound 10 µM, first compound 0.316 µM
[36] = second compound 10 µM, first compound 1 µM
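Also: spheroids exposed to compounds for seven days.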
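For viability, T/C in this document: 100% = DMSO vehicle control viability.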

Q: `C=CCn1c(=O)c2cnc(Nc3ccc(N4CCN(C)CC4)cc3)nc2n1-c1cccc(C(C)(C)O)n1` + COC1C(OC(N)=O)C(O)C(Oc2ccc3c(O)c(NC(=O)c4ccc(O)c(CC=C(C)C)c4)c(=O)oc3c2C)OC1(C)C was tested. Which IC50 (second compound 0.0316 µM) did it give?
A: > 1000 nM

Q: What about the IC50 (second compound 0.1 µM) of the same molecule?
A: > 1000 nM

Q: What about the IC50 (second compound 0.316 µM) of the same molecule?
A: > 1000 nM

Q: And the IC50 (second compound 1 µM)?
A: > 1000 nM

Q: What about the IC50 (second compound 3.16 µM) of the same molecule?
A: > 1000 nM

Q: What about the IC50 (second compound 10 µM) of the same molecule?
A: > 1000 nM

Q: And the viability, T/C [1]?
A: 85.2%

Q: What about the viability, T/C [2] of the same molecule?
A: 97.7%

Q: What about the viability, T/C [3] of the same molecule?
A: 147%

Q: And the viability, T/C [4]?
A: 120%

Q: And the viability, T/C [5]?
A: 91.7%

Q: What about the viability, T/C [6] of the same molecule?
A: 64.7%

Q: And the viability, T/C [7]?
A: 122%

Q: And the viability, T/C [8]?
A: 108%

Q: And the viability, T/C [9]?
A: 94.4%

Q: What about the viability, T/C [10] of the same molecule?
A: 118%

Q: What about the viability, T/C [11] of the same molecule?
A: 99.1%

Q: What about the viability, T/C [12] of the same molecule?
A: 89.9%

Q: And the viability, T/C [13]?
A: 113%

Q: And the viability, T/C [14]?
A: 109%

Q: And the viability, T/C [15]?
A: 134%

Q: And the viability, T/C [16]?
A: 96.3%

Q: And the viability, T/C [17]?
A: 98.7%

Q: And the viability, T/C [18]?
A: 81.7%

Q: What about the viability, T/C [19] of the same molecule?
A: 114%

Q: What about the viability, T/C [20] of the same molecule?
A: 90.5%

Q: What about the viability, T/C [21] of the same molecule?
A: 93.1%

Q: And the viability, T/C [22]?
A: 109%

Q: And the viability, T/C [23]?
A: 110%

Q: What about the viability, T/C [24] of the same molecule?
A: 67.8%

Q: And the viability, T/C [25]?
A: 118%

Q: And the viability, T/C [26]?
A: 120%

Q: What about the viability, T/C [27] of the same molecule?
A: 78.4%

Q: What about the viability, T/C [28] of the same molecule?
A: 91.5%

Q: And the viability, T/C [29]?
A: 105%

Q: And the viability, T/C [30]?
A: 76.4%

Q: What about the viability, T/C [31] of the same molecule?
A: 88.5%

Q: And the viability, T/C [32]?
A: 91.8%

Q: And the viability, T/C [33]?
A: 87.2%

Q: What about the viability, T/C [34] of the same molecule?
A: 102%

Q: And the viability, T/C [35]?
A: 96.7%

Q: And the viability, T/C [36]?
A: 75.5%

Q: With `CC[C@@]1(O)C(=O)OCc2c1cc1n(c2=O)Cc2cc3c(CN(C)C)c(O)ccc3nc2-1` + COC1C(OC(N)=O)C(O)C(Oc2ccc3c(O)c(NC(=O)c4ccc(O)c(CC=C(C)C)c4)c(=O)oc3c2C)OC1(C)C as the molecule, how does the IC50 (second compound 0.0316 µM) read?
A: > 100 nM

Q: What about the IC50 (second compound 0.1 µM) of the same molecule?
A: > 100 nM

Q: What about the IC50 (second compound 0.316 µM) of the same molecule?
A: > 100 nM

Q: And the IC50 (second compound 1 µM)?
A: > 100 nM

Q: And the IC50 (second compound 3.16 µM)?
A: > 100 nM

Q: And the IC50 (second compound 10 µM)?
A: > 100 nM

Q: And the viability, T/C (second compound 0.0316 µM, first compound 0.000316 µM)?
A: 120%

Q: What about the viability, T/C (second compound 0.0316 µM, first compound 0.001 µM) of the same molecule?
A: 114%

Q: What about the viability, T/C [1] of the same molecule?
A: 119%

Q: What about the viability, T/C [2] of the same molecule?
A: 99.6%

Q: What about the viability, T/C [3] of the same molecule?
A: 112%

Q: And the viability, T/C [4]?
A: 72%

Q: And the viability, T/C (second compound 0.1 µM, first compound 0.000316 µM)?
A: 130%

Q: And the viability, T/C (second compound 0.1 µM, first compound 0.001 µM)?
A: 106%

Q: What about the viability, T/C [7] of the same molecule?
A: 116%

Q: What about the viability, T/C [8] of the same molecule?
A: 115%

Q: What about the viability, T/C [9] of the same molecule?
A: 106%

Q: What about the viability, T/C [10] of the same molecule?
A: 64.6%

Q: And the viability, T/C (second compound 0.316 µM, first compound 0.000316 µM)?
A: 106%

Q: What about the viability, T/C (second compound 0.316 µM, first compound 0.001 µM) of the same molecule?
A: 105%

Q: What about the viability, T/C [13] of the same molecule?
A: 85.3%

Q: What about the viability, T/C [14] of the same molecule?
A: 100%

Q: What about the viability, T/C [15] of the same molecule?
A: 110%

Q: And the viability, T/C [16]?
A: 69.3%

Q: What about the viability, T/C (second compound 1 µM, first compound 0.000316 µM) of the same molecule?
A: 101%

Q: And the viability, T/C (second compound 1 µM, first compound 0.001 µM)?
A: 112%

Q: And the viability, T/C [19]?
A: 131%

Q: And the viability, T/C [20]?
A: 91.2%

Q: And the viability, T/C [21]?
A: 91.8%

Q: And the viability, T/C [22]?
A: 70.5%

Q: What about the viability, T/C (second compound 3.16 µM, first compound 0.000316 µM) of the same molecule?
A: 102%

Q: What about the viability, T/C (second compound 3.16 µM, first compound 0.001 µM) of the same molecule?
A: 105%

Q: What about the viability, T/C [25] of the same molecule?
A: 97.5%

Q: And the viability, T/C [26]?
A: 123%

Q: What about the viability, T/C [27] of the same molecule?
A: 111%

Q: And the viability, T/C [28]?
A: 58.5%

Q: What about the viability, T/C (second compound 10 µM, first compound 0.000316 µM) of the same molecule?
A: 112%

Q: What about the viability, T/C (second compound 10 µM, first compound 0.001 µM) of the same molecule?
A: 110%

Q: And the viability, T/C [31]?
A: 111%

Q: What about the viability, T/C [32] of the same molecule?
A: 80.7%

Q: What about the viability, T/C [33] of the same molecule?
A: 102%

Q: And the viability, T/C [34]?
A: 70.3%

Q: Which results are given for `COc1cc(C2c3cc4c(cc3C(OC3OC5COC(C)OC5C(O)C3O)C3COC(=O)C23)OCO4)cc(OC)c1O` (stereo unspecified) + COC1C(OC(N)=O)C(O)C(Oc2ccc3c(O)c(NC(=O)c4ccc(O)c(CC=C(C)C)c4)c(=O)oc3c2C)OC1(C)C?
A: IC50 (second compound 0.0316 µM): > 10000 nM; IC50 (second compound 0.1 µM): > 10000 nM; IC50 (second compound 0.316 µM): 9290 nM; IC50 (second compound 1 µM): 8390 nM; IC50 (second compound 3.16 µM): > 10000 nM; IC50 (second compound 10 µM): > 10000 nM; viability, T/C [3]: 95.7%; viability, T/C [4]: 111%; viability, T/C [5]: 97.1%; viability, T/C [6]: 80%; viability, T/C (second compound 0.0316 µM, first compound 3.16 µM): 78.3%; viability, T/C (second compound 0.0316 µM, first compound 10 µM): 49.5%; viability, T/C [9]: 75.8%; viability, T/C [10]: 92.8%; viability, T/C [11]: 102%; viability, T/C [12]: 90.7%; viability, T/C (second compound 0.1 µM, first compound 3.16 µM): 67.9%; viability, T/C (second compound 0.1 µM, first compound 10 µM): 53.5%; viability, T/C [15]: 101%; viability, T/C [16]: 80.1%; viability, T/C [17]: 85.3%; viability, T/C [18]: 77%; viability, T/C (second compound 0.316 µM, first compound 3.16 µM): 73.8%; viability, T/C (second compound 0.316 µM, first compound 10 µM): 46%; viability, T/C [21]: 89%; viability, T/C [22]: 86.8%; viability, T/C [23]: 86%; viability, T/C [24]: 81.1%; viability, T/C (second compound 1 µM, first compound 3.16 µM): 77.3%; viability, T/C (second compound 1 µM, first compound 10 µM): 45%; viability, T/C [27]: 76.5%; viability, T/C [28]: 96.1%; viability, T/C [29]: 97.2%; viability, T/C [30]: 89.8%; viability, T/C (second compound 3.16 µM, first compound 3.16 µM): 70.1%; viability, T/C (second compound 3.16 µM, first compound 10 µM): 51.7%; viability, T/C [33]: 87.4%; viability, T/C [34]: 83.2%; viability, T/C [35]: 118%; viability, T/C [36]: 68.5%; viability, T/C (second compound 10 µM, first compound 3.16 µM): 70.3%; viability, T/C (second compound 10 µM, first compound 10 µM): 53%
